Consider 6 compounds from US11857596B2, “Animal feed additive and animal feed” (priority 2018, dated 2024).

No end group written: not given here.

Data set [1] is described as follows: Metabolome analysis of intestinal tract contents and blood. In kind it is in vivo, chickens. The source says: It is thus considered that coated-Phe and coated-Tyr are assimilated by intestinal bacteria in feces and rapidly metabolized in blood.
The nature of data set [2]: Chicken growth test (body weight gain and feed conversion ratio). The following applies: for BWG / FCR: Table 4, 0-3 weeks, addition 200 ppm (core material) in feed; for body weight gain effect and feed conversion ratio improvement effect: result in words, healthy broilers, 0 to 21 days of age. The class given is in vivo, broiler chickens.
The conditions of data set [3]: 500 to 1,000 ppm of quercetin added to the feed; cited from earlier work.
The test system of a further data set is intestinal microbiota. Conditions: cited from earlier work.
In data set [4] the test system is Caco-2 cells (human intestinal epithelial cells). As to the kind of experiment: Membrane strengthening experiment (TER recovery of barrier function after TNF-α). The class given is cell-based. The following applies: for function of strengthening the barrier function (membrane-strengthening ability): result in words, FIG. 1A-1H.
In data set [5] the test system is Salmonella enterica (SE). As to the kind of experiment: Salmonella infection test in chickens (body weight gain and feed conversion ratio). The class given is in vivo, chickens (broilers). Conditions: for BWG / FCR: 0-3 week, SE orally at 2 days of age; for body weight gain effect and feed conversion ratio improvement effect: result in words, Salmonella enterica infected broilers, test feed 21 days. How it is done: The coated-Tyr and Tyr prepared in the same manner as in Example 2-1 were added to the feed matrix having the composition presented in Table 2 so that the amount of the core material was 200 ppm, to thereby prepare a feed. Broilers at 1 day of age were introduced into a breeding facility for infection test (6 broilers/repeat and 2 repeats/test group), then Salmonella enterica (SE) was orally administered to the broilers at 2 days of age, and the test feed was fed for 21 days to evaluate the body weight gain effect and feed conversion ratio of chickens. Note that a conventional antimicrobial growth promoter, enramycin, was used as a positive control. As enramycin, a commercially available product (“Enramycin F-80” manufactured by Scientific Feed Laboratory Co., Ltd., uncoated) was used as it was.
The results are presented with a negative control of 100. […]
Broilers at 0 days of age were introduced into a breeding facility for infection test (6 broilers/repeat and 2 repeats/test group), then Salmonella enterica (SE) was orally administered to the broilers at 2 days of age, and the test feed was fed for 21 days to evaluate the body weight gain effect and feed conversion ratio. Note that a conventional antimicrobial growth promoter, enramycin, was used as a positive control. As enramycin, a commercially available product (“Enramycin F-80” manufactured by Scientific Feed Laboratory Co., Ltd., uncoated) was used as it was.

The next data set relates to Clostridium perfringens. In kind it is cell-based. Details: key: “+” to “+++++”: indicates the strength of antibacterial effect. The more “+”, the stronger the effect.; “+” to “+++++”: indicates the strength of antibacterial effect. The more “+”, the stronger the effect.; “+” to “+++++”: indicates the strength of antibacterial effect. The more “+”, the stronger the effect.; “+” to “+++++”: indicates the strength of antibacterial effect. The more “+”, the stronger the effect.; “+” to “+++++”: indicates the strength of antibacterial effect. The more “+”, the stronger the effect.; “ND”: indicates no effect detected (not detected). Conditions: Nisin A and Duramycin 1 mg/ml, others 10-fold concentrated culture supernatant of producers.

Data set [6] deals with Lactobacillus acidophilus. As to the kind of experiment: Antibacterial spectrum of bacteriocin, spot-on lawn method. The following applies: Nisin A and Duramycin 1 mg/ml, others 10-fold concentrated culture supernatant of producers. Further details: key: “+” to “+++++”: indicates the strength of antibacterial effect. The more “+”, the stronger the effect.; “+” to “+++++”: indicates the strength of antibacterial effect. The more “+”, the stronger the effect.; “+” to “+++++”: indicates the strength of antibacterial effect. The more “+”, the stronger the effect.; “+” to “+++++”: indicates the strength of antibacterial effect. The more “+”, the stronger the effect.; “+” to “+++++”: indicates the strength of antibacterial effect. The more “+”, the stronger the effect.; “ND”: indicates no effect detected (not detected). In kind it is cell-based.

In data set [7] the test system is Bacteroides fragilis JCM11019. Described as above. The class given is cell-based. Further details: key: “+” to “+++++”: indicates the strength of antibacterial effect. The more “+”, the stronger the effect.; “+” to “+++++”: indicates the strength of antibacterial effect. The more “+”, the stronger the effect.; “+” to “+++++”: indicates the strength of antibacterial effect. The more “+”, the stronger the effect.; “+” to “+++++”: indicates the strength of antibacterial effect. The more “+”, the stronger the effect.; “+” to “+++++”: indicates the strength of antibacterial effect. The more “+”, the stronger the effect.; “ND”: indicates no effect detected (not detected). Conditions: Nisin A and Duramycin 1 mg/ml, others 10-fold concentrated culture supernatant of producers.

Data set [8] deals with Bifidobacterium thermophilum AJ110569. The description is as above. The class given is cell-based. Details: key: “+” to “+++++”: indicates the strength of antibacterial effect. The more “+”, the stronger the effect.; “+” to “+++++”: indicates the strength of antibacterial effect. The more “+”, the stronger the effect.; “+” to “+++++”: indicates the strength of antibacterial effect. The more “+”, the stronger the effect.; “+” to “+++++”: indicates the strength of antibacterial effect. The more “+”, the stronger the effect.; “+” to “+++++”: indicates the strength of antibacterial effect. The more “+”, the stronger the effect.; “ND”: indicates no effect detected (not detected). The following applies: Nisin A and Duramycin 1 mg/ml, others 10-fold concentrated culture supernatant of producers.

Data set [9] shares this test system. As to the kind of experiment: Minimum inhibitory concentration, spot-on-lawn method. The following applies: indicator strain Bifidobacterium thermophilum AJ110569; GAM, 37° C. In kind it is cell-based.
Data set [10] relates to Lactobacillus acidophilus AJ13778. The data set is described as above. The class given is cell-based. Conditions: indicator strain Lactobacillus acidophilus AJ13778; MRS, 37° C.
In data set [11] the test system is Salmonella enterica AJ2785. As to the kind of experiment: microbe, parasite or virus in culture. The class given is cell-based.
For data set [12], the system named is Clostridium perfringens AJ3350. As to the kind of experiment: microbe, parasite or virus in culture. In kind it is cell-based.
The test system of the next data set is Escherichia coli MG1665. As to the kind of experiment: Minimum inhibitory concentration, spot-on-lawn method. In kind it is cell-based.
For data set [13], the system named is Enterococcus faecalis AJ110149. Described as above. The following applies: indicator strain Enterococcus faecalis AJ110149; MRS, 30° C.; ND = no effect detected. In kind it is cell-based.
For data set [14], the system named is Salmonella enterica (SE). As to the kind of experiment: Salmonella infection test in chickens (body weight gain and feed conversion ratio). The following applies: Table 5; 0-3 week; addition 10 ppm; SE orally at 2 days of age; negative control = 100. The class given is in vivo, chickens (broilers).
In data set [15] the test system is Lactobacillus salivarius AJ110152. As to the kind of experiment: Minimum inhibitory concentration, spot-on-lawn method. The class given is cell-based. The following applies: indicator strain Lactobacillus salivarius AJ110152; MRS, 37° C.
Data set [16] concerns Bacteroides fragilis JCM11019. Described as above. In kind it is cell-based. Conditions: indicator strain Bacteroides fragilis JCM11019; GAM, 37° C.
In data set [17] the test system is Enterococcus faecalis AJ110149. As to the kind of experiment: Antibacterial spectrum of bacteriocin, spot-on lawn method. The class given is cell-based. Further details: key: “+” to “+++++”: indicates the strength of antibacterial effect. The more “+”, the stronger the effect.; “+” to “+++++”: indicates the strength of antibacterial effect. The more “+”, the stronger the effect.; “+” to “+++++”: indicates the strength of antibacterial effect. The more “+”, the stronger the effect.; “+” to “+++++”: indicates the strength of antibacterial effect. The more “+”, the stronger the effect.; “+” to “+++++”: indicates the strength of antibacterial effect. The more “+”, the stronger the effect.; “ND”: indicates no effect detected (not detected). Conditions: Nisin A and Duramycin 1 mg/ml, others 10-fold concentrated culture supernatant of producers.

The next data set deals with Escherichia coli MG1655. The data set is described as above. The class given is cell-based. Further details: key: “+” to “+++++”: indicates the strength of antibacterial effect. The more “+”, the stronger the effect.; “+” to “+++++”: indicates the strength of antibacterial effect. The more “+”, the stronger the effect.; “+” to “+++++”: indicates the strength of antibacterial effect. The more “+”, the stronger the effect.; “+” to “+++++”: indicates the strength of antibacterial effect. The more “+”, the stronger the effect.; “+” to “+++++”: indicates the strength of antibacterial effect. The more “+”, the stronger the effect.; “ND”: indicates no effect detected (not detected). Conditions: Nisin A and Duramycin 1 mg/ml, others 10-fold concentrated culture supernatant of producers.

The test system of data set [18] is Lactobacillus salivarius AJ110152. Described as above. The class given is cell-based. Further details: key: “+” to “+++++”: indicates the strength of antibacterial effect. The more “+”, the stronger the effect.; “+” to “+++++”: indicates the strength of antibacterial effect. The more “+”, the stronger the effect.; “+” to “+++++”: indicates the strength of antibacterial effect. The more “+”, the stronger the effect.; “+” to “+++++”: indicates the strength of antibacterial effect. The more “+”, the stronger the effect.; “+” to “+++++”: indicates the strength of antibacterial effect. The more “+”, the stronger the effect.; “ND”: indicates no effect detected (not detected). Conditions: Nisin A and Duramycin 1 mg/ml, others 10-fold concentrated culture supernatant of producers.

The mark [19] stands for this setting: material conc. 100 uM, comparison value with Ctr (TNFα alone), 24 h.
Setting [20] is: Table 5, addition 200 ppm, negative control = 100.
[21] abbreviates: Table 8, 10 ppm, control group = 100%.

With `N[C@@H](Cc1ccccc1)C(=O)O` [Phe, phenylalanine], in data set [1] (in vivo), the “detection in the intestinal tract contents or blood” value is on record as “not detected”. In addition, in [2], the BWG turned out to be 106%; the FCR is listed as 98%; the “body weight gain effect and feed conversion ratio improvement effect” value is “A certain degree of body weight gain effect was confirmed”.

Consider `O=c1c(O)c(-c2ccc(O)c(O)c2)oc2cc(O)cc(O)c12` [Quercetin, quercetin], for which, in [3], the “body weight gain effect (body weight gain efficiency) and feed consumption” value was “did not increase”; the feed conversion ratio entry was “remained almost unchanged or slightly decreased”. Moreover, in the data set on intestinal microbiota, the “effect on the intestinal microbiota” value was “negative effect”. For the same compound, the activity at 100 µM in data set [4] (Homo sapiens, Caco-2, material conc. 100 uM, TER barrier function recovery, 24 h, read-out: Recovery ratio (%)) stood at 138%. The Recovery ratio/ctr in [4] (setting [19]) is given as 1.23. Besides, the “function of strengthening the barrier function (membrane-strengthening ability)” value (“function” for short) in [4] was “observed to have the function of strengthening the barrier function”.

`N[C@@H](Cc1ccc(O)cc1)C(=O)O` [Tyrosin, tyrosine]: the “detection in the intestinal tract contents or blood” value in [1] (metabolome analysis, chicken growth test of 2-3) is “not detected”. In [4] (24 h, 20 µM), the Recovery ratio/ctr was 1.19. Further, the activity at 20 µM in [4] (Homo sapiens, Caco-2, material conc. 20 uM, TER barrier function recovery, 24 h, read-out: Recovery ratio (%)) worked out at 138%. In addition, the “function” value in data set [4] is “observed to have the function of strengthening the barrier function”. The BWG in data set [2] was 104%; in the data set with Salmonella enterica (SE) [5] (setting [20]) it was 96%. Besides, the FCR turned out to be 98% in [2] and 100% with Salmonella enterica (SE) [5] (setting [20]). The “body weight gain effect and feed conversion ratio improvement effect” value is recorded as “A certain degree of body weight gain effect was confirmed” in data set [2] and “no effect” in the data set on Salmonella enterica (SE) [5].

For duramycin, the “Antibacterial spectrum (strength of antibacterial effect)” value (shortened to “Antibacterial spectrum”) in the data set on Clostridium perfringens is reported as “+++++”; in data set [6], “+”; in data set [7], “+”; in data set [8], “++”. In addition, the “Recovery ratio (%)” value in data set [4] (material conc. 1 uM, TER barrier function recovery, 24 h) is given as 120%. Also, the Recovery ratio/ctr in data set [4] (material conc. 1 uM, comparison value with Ctr (TNFα alone), 24 h) stood at 1.04.

With enramycin, the Minimum inhibitory concentration in [9] is 500 µg/mL; in data set [10], 500 µg/mL; in [11] it was greater than 100000 µg/mL; in [12], 1000 µg/mL; in the data set on Escherichia coli MG1665, greater than 100000 µg/mL; in [13], 4000 µg/mL. Besides, the Minimum inhibitory concentration in data set [15] came to 500 µg/mL; in data set [16], 64000 µg/mL. For the same compound, the “Recovery ratio (%)” value in data set [4] (material conc. 100 uM, TER barrier function recovery, 24 h) is on record as 144%. For the same compound, in data set [4] (setting [19]), the Recovery ratio/ctr was determined as 1.28. In addition, the BWG with Salmonella enterica (SE) [14] and with Salmonella enterica (SE) [5] (setting [21]) was 107% in each case. Also, the FCR with Salmonella enterica (SE) [14] and in the data set with Salmonella enterica (SE) [5] (setting [21]) was 98% each time.

Turning to “nisin A (ITSISLCTPGCKTGALMGCNMKTATCHCSIHVSK; not fully specified (some residues, bridges); also: lantibiotic (ring and dehydro residues not placed); UniProt P13068 24-57, looked up) [reagent manufactured by Sigma-Aldrich, nisin content 2.5% by mass, balance sodium chloride and denatured milk solids]”, the “Antibacterial spectrum” value in the data set with Clostridium perfringens is listed as “+++++”; in data set [6], “++++”; in [17], “+++++”; in data set [7], “++++”; in the data set on Escherichia coli MG1655 it was “++”; in data set [18], “+++++”. Besides, in data set [8], the “Antibacterial spectrum” value was “+++++”. Also, in data set [4], the “function” value is reported as “observed to have the function of strengthening the barrier function”. Besides, the BWG in the data set on Salmonella enterica (SE) [5] (setting [21]) came out at 101%. In addition, the FCR in the data set on Salmonella enterica (SE) [5] (setting [21]) was determined as 100%. Besides, the “body weight gain effect and feed conversion ratio improvement effect” value in the data set with Salmonella enterica (SE) [5] is “no effect”.
